Values after ≈ are worked out from the molar mass of the structure shown. Read-outs that look alike come from different tables or passages of the source.
Assays:
[1] = system: CT26 mouse colon cancer cells;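 note: MTT read-out taken as absorbance at 562 nm after a 3 h dye incubation, medium-only wells as blank, values averaged over three independent experiments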
Experimental: (§1) CT26 cells (MC38 cells, 4T1 cells, B16FIO cells, HePa1-6 cells, H22 cells, LLC cells, MB49 cells, P388 cells, C6 cells, BXPC-3 cells, Hela cells, MDA-MB-231 cells, A2780 cells. PC3 cells. HepG2 cells, and HGC-27 cells) were cultured at 5,000 cells/well in a 96-well plate, 100 μL of a medium was added to each well, and the cells were incubated in a 37° C. constant-temperature incubator with 5% CO2 and 95% humidity for 24 h. 100 μL of different concentrations of drugs (DOX: 0.01 μg/mL to 10 μg/mL; PTX: 0.01 μg/mL to 50 μg/mL; Cela: 0.05 μg/mL to 1 μg/mL; sensitizer: 5 μg/mL) were added to each well, while 100 lit of a medium solution was added to the blank group. After culturing for 48 h, centrifugation was conducted at 1,100 rpm for 6 min, the medium in each well was discarded, 100 μL of an 11,11T working solution was added, and the culturing was continued for 3 h. Centrifugation was conducted at 3,300 rpm. for 5 min, the MITT medium in each well was discarded, 100 pt, of the DMSO was added, and the plate was shaken for 5 min to dissolve all crystals in each well. An absorbance of the sample at 562 nm was detected by a microplate reader. Each set of data was an average of three independent experimental results on the same sample.

[2] = system: CT26 mouse colon cancer cells; test: Cytotoxicity (MTT) in combination with chemotherapeutic drugs;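 note: MTT read-out taken as absorbance at 562 nm after a 3 h dye incubation, medium-only wells as blank, values averaged over three independent experiments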
Experimental: as §1

[3] = system: mRNA expression of PD-L1 in CT26 cells; test: PD-L1 mRNA expression in tumor cells by qPCR; assay type: cell-based, mouse; details: 5 μM, 48 h, GAPDH internal reference
Experimental: CT26 cells were inoculated in a 6-well plate at 2×10^5 cells per well and placed in a 37° C. incubator. After the cells adhered, DMSO solutions (5 μM) of the compounds of the present disclosure were added separately, and the incubation was continued for 48 h. Total RNA was lysed and extracted, and reverse transcription and PCR experiments were conducted to detect an RNA level of PD-L1 in CT26 cells, using a GAPDH gene as an internal reference.

[4] = system: HIF-1α expression in CT26 cells; test: HIF-1α expression in tumor cells by flow cytometry; assay type: cell-based, mouse; details: 5 μM, 24 h, vs blank control
Experimental: CT26 cells were evenly plated in a 6-well plate at 2×10^4 cells per well. After the cells adhered, DMSO solutions (5 μM) of the different compounds of the present disclosure were added separately, and the incubation was continued for 24 h. The medium was discarded, the cells were rinsed three times with PBS, and 0.2 mL of trypsin containing EDTA was added to each well. The digested cells were collected in a flow tube, and a supernatant was removed by centrifugation; the cells were resuspended in a PBS containing 5% goat serum, and an FITC anti-mouse HIF-1α antibody (1 μg/1×10^6 cells) was added, incubated at 4° C. for 30 min, and washed three times with PBS, and subjected to flow detection on-machine.

[5] = system: PD-L1 expression in CT26 cells; test: PD-L1 expression in tumor cells by Western blot; assay type: cell-based, mouse; details: 5 μM, 48 h
Experimental: CT26 cells were inoculated in a 6-well plate at 2×10^4 cells per well and placed in a 37° C. incubator. After the cells adhered, DMSO solutions (5 μM) of compounds 1 to 8 were added separately, and the incubation was continued for 48 h. The medium was discarded, the cells were rinsed three times with pre-cooled PBS, and the washing solution was discarded. 0.2 nrii, of a cell lysis solution containing a protease inhibitor was added to each well and placed on ice to conduct lysis for 30 min.
After the lysis was completed, a lysate and cell debris were scraped to one side of the Petri dish with a cell scraper, the lysate was transferred to a 1.5 mL Ep tube with a pipette, centrifuged at 4° C. (12,000 rpm/5 min), and a supernatant was collected to determine its protein concentration.
The protein sample was diluted with a 1UPAlysis buffer to a certain concentration, 5×SDS loading buffer was added in a protein amount of 1 μg/μL, incubated on a metal bath at 95° C. for 5 min, cooled to room temperature, and the sample was loaded to an SDS-PAGE electrophoresis gel (5% for stacking gel and 12% for resolving gel). Under a voltage of 90 V, the protein was run to the bottom of the stacking gel to form a straight line, then the voltage was adjusted to 125 V, and the electrophoresis was stopped after the bromophenol blue appeared. […]

[6] = CT26 cell line, chemotherapeutic drug in combination with compound 7 (sensitizer 5 μg/mL), 48 h

Row | IC50 [1] | SMILES | IC50, Compound 7+ [2, 6] | also measured
1 | 68.2 ± 2.29 µg/mL (≈ 82.6 µM) | CC[C@]1(O)C[C@H]2CN(CCc3c([nH]c4ccccc34)[C@@](C(=O)OC)(c3cc4c(cc3OC)N(C=O)[C@H]3[C@@](O)(C(=O)OC)[C@H](OC(C)=O)[C@]5(CC)C=CCN6CC[C@]43[C@@H]65)C2)C1 [Vincristine] | 44.312 ± 1.851 µg/mL | –
2 | – | CC(=O)O[C@@]12CO[C@@H]1C[C@H](O)[C@@]1(C)C(=O)[C@H](O)C3=C(C)[C@@H](OC(=O)[C@H](O)[C@@H](NC(=O)OC(C)(C)C)c4ccccc4)C[C@@](O)([C@@H](OC(=O)c4ccccc4)[C@H]21)C3(C)C [Docetaxel] | 0.029 ± 0.005 µg/mL | –
3 | – | CC1=C(O)C(=O)C=C2C1=CC=C1[C@@]2(C)CC[C@@]2(C)[C@@H]3C[C@](C)(C(=O)O)CC[C@]3(C)CC[C@]12C [Tripterine] | – | IC50, Compound 7+ [2]: 1.592 ± 0.142 µg/mL; IC50, Compound 7− [2]: 5.219 ± 0.242 µg/mL
4 | 97.4 ± 3.33 µg/mL (≈ 179 µM) | COc1cccc2c1C(=O)c1c(O)c3c(c(O)c1C2=O)C[C@@](O)(C(=O)CO)C[C@@H]3O[C@H]1C[C@H](N)[C@@H](O)[C@H](C)O1 [Epirubicin] | 17.125 ± 1.338 µg/mL | –
5 | – | O=C(O)CNC(=O)c1ncc(-c2cccc(Cl)c2)cc1O [compound 6] | – | mRNA expression level of PD-L1 [3]: best effect; expression of HIF-1α in tumor cells [4]: best effect; expression of PD-L1 in tumor cells (Western blot) [5]: best effect
6 | 0.066 ± 0.006 µg/mL (≈ 0.168 µM) | CCc1c2c(nc3ccc(O)cc13)-c1cc3c(c(=O)n1C2)COC(=O)[C@]3(O)CC [7-ethyl-10-hydroxycamptothecine] | 0.025 ± 0.001 µg/mL | –

Row | SMILES | IC50 [1] | IC50, Compound 7+ [2, 6] | also measured
7 | CC(C)=CCC[C@]1(C)C=Cc2c(O)c3c(c(CC=C(C)C)c2O1)O[C@]12C(=C[C@@H]4C[C@H]1C(C)(C)O[C@@]2(C/C=C(/C)C(=O)O)C4=O)C3=O [Gambogic acid] | 2.18 ± 0.454 µg/mL (≈ 3.47 µM) | 0.792 ± 0.181 µg/mL | –
8 | N.N.[Cl][Pt][Cl] [Cis-platinum] | 1.28 ± 0.146 µg/mL | 0.571 ± 0.068 µg/mL | –

Source: US20230248717A1, “N-(3-HYDROXYPYRIDINE-2-CARBONYL)GLYCINE-BASED ANTITUMOR DRUG SENSITIZER AND APPLICATION THEREOF” (ZHEJIANG UNIVERSITY, priority 2019, published 2023)
